Experimental findings from patent US12285528B2, “Injectable formulations of anesthetics for any pathological pain” (New Jersey Institute of Technology, priority 2018, dated 2025) are described below.

Where only a bound is given, the exact number is not on record here.

What all share (type): in vivo, rat
Data set [1] has as its system incision-induced mechanical pain hypersensitivity. Description: Incisional pain model, mechanical allodynia (paw withdrawal threshold, von Frey) after peri-sciatic nerve injection. To be noted: 0.25%, 0.2 mL peri-sciatic, P<0.05. The protocol: (§1) Male and female Sprague-Dawley rats weighing 200-250 g were obtained from Charles River Laboratories (Wilmington, MA). All rats were housed in an animal facility that was kept in a standard 12-h light/dark cycle, with standard laboratory water and food pellets available ad libitum. Animal experiments were conducted with the approval of the Animal Care and Use Committee at Rutgers-New Jersey Medical School and were consistent with the ethical guidelines of the US National Institutes of Health and the International Association for the Study of Pain. All efforts were made to minimize animal suffering and to reduce the number of animals used. To minimize intra- and inter-individual variability of behavioral outcome measures, animals were trained for 1-2 days before behavioral testing was performed. The experimenters were blinded to treatment condition during behavioral testing.
(§2) The incisional surgery was carried out with minor modification as described in T. J. Brennan, et al., Characterization of a rat model of incisional pain, Pain, 64 (1996) 493-501. Rats were anesthetized with 2% isoflurane delivered via a nose cone. The plantar aspect of the left hindpaw was prepared in a sterile manner with a 10% povidone-iodine solution. A 1-cm longitudinal incision was made with a number 11 blade, through skin and fascia of the plantar aspect of the foot, starting 0.5 cm from the proximal edge of the heel and extending toward the toes. The plantaris muscle was elevated and incised longitudinally. After hemostasis with gentle pressure, the skin was sutured with 5-0 nylon thread. The wound site was covered with a mixture of polymixin B, neomycin, and bacitracin ointment. After surgery, the animals were allowed to recover in their cages.
(§3) The rats received sciatic nerve block under inhalation anesthesia with isoflurane. Nerve block injections were performed with a 20-gauge needle under isoflurane-oxygen anesthesia as described in J. G. Thalhammer, et al., Neurologic evaluation of the rat during sciatic nerve block with lidocaine, Anesthesiology, 82 (1995) 1013-1025. […]

Data set [2] deals with incision-induced thermal pain hypersensitivity. Nature of the data set: Incisional pain model, heat allodynia (paw withdrawal latency) after peri-sciatic nerve injection. To be noted: 0.25%, P<0.05. The protocol:
as §1, §2, §3

The subject of data set [3] is postsurgical pain (hindpaw plantar incision). Description: Incisional pain model, overall analgesic effect (mechanical and heat) after peri-sciatic nerve injection. The conditions noted are these: 0.25%, 0.2 mL peri-sciatic. The protocol:
as §1
The incisional surgery was carried out with minor modification as described in T. J. Brennan, et al., Characterization of a rat model of incisional pain, Pain, 64 (1996) 493-501. Rats were anesthetized with 2% isoflurane delivered via a nose cone. The plantar aspect of the left hindpaw was prepared in a sterile manner with a 10% povidone-iodine solution. […]

The next data set relates to locomotor function. Description: Locomotor function test (placing, grasping, righting reflexes). The conditions noted are these: 0.25%. The protocol: The rats were divided into different groups according to the different pain model performed (incisional pain model or SNI model), and were injected with 0.2 mL of a sustained-release ropivacaine hydrochloride PBS solution (SRR or alternatively, PLGA-ROPI) containing 0.25%, 0.125%, and 0.06% of PLGA-ROPI or PLGA-RVC·HCl, a PBS solution containing 0.25% free ropivacaine (FR or alternatively, Free-ROPI), and 2 control solutions of a neat PBS, and a neat PLGA, respectively. The % used here refers to the weight (gram %) of PLGA-ROPI or PLGA-RVC·HCl by the volume (mL) of the solution. For example, 0.25% refers to 0.25 g/100 mL. The animals were divided into 10 groups: incision+0.25% SRR, incision+0.125% SRR, incision+0.06% SRR, incision+0.25% FR, incision+PLGA, incision+PBS. SNI+0.25% SRR, SNI+0.125% SRR, SNI+0.06% SRR, SNI+PBS. Each group contained 8 rats. […] For the SNI model, mechanical and cold allodynia with 1 h intervals were used to examine rats 1 d before surgery and 7 d post-surgery, post peri-sciatic nerve injection on 7 d post-surgery, and the behavior test was resumed on d8, d10, d12, d14, d16, d19, and d22. Tests of locomotor function, including placing, grasping and righting reflexes, were performed before and after incision surgery according to the previously described protocol in Y. X. Tao, et al., Impaired neuropathic pain and preserved acute pain in rats overexpressing voltage-gated potassium channel subunit Kv1.2 in primary afferent neurons, Molecular Pain, 10 (2014) 8. (1) Placing reflex: The rat was held with hind limbs slightly lower than the forelimbs and the dorsal surfaces of the hind paws were brought into contact with the edge of a table. Whether the hind paws were placed on the table surface reflexively was recorded; (2) Grasping reflex: The rat was placed on a wire grid and whether the hind paws grasped the wire on contact was recorded; (3) Righting reflex: The rat's back was placed on a flat surface and whether it immediately assumed the normal upright position was recorded. […] In addition, the animal's general behaviors, including spontaneous activity (e.g. walking and running), were observed.

Data set [4] has as its system sciatic nerve and surrounding tissues. Description: Histology (H&E) of sciatic nerve and surrounding tissues. The conditions noted are these: 0.25%, 11 days after injection. The text has this:
The rats were anesthetized with isoflurane and sciatic nerves were harvested and fixed in 4% paraformaldehyde. Following tissue fixation and dehydration, sciatic nerves were embedded in Optimal cutting temperature compound (OCT compound) and 20-μm thin slices were cut on a cryostat, then stained using hematoxylin and eosin stain technique. Nerve structures were observed using a Nikon microscope (Nikon Eclipse 80i, Japan). Rats injected with PBS, PLGA, 0.25% FR (i.e., 0.25% Free ROPI), and 0.25% SRR (i.e., 0.25% PLGA-ROPI) were euthanized 11 days after injection (n=3 for each group), and the sciatic nerve and surrounding tissues were harvested, sectioned for histology, and stained with hematoxylin-eosin (H&E). SRR were not observed on gross dissection.

In data set [5] the test system is myelin basic protein (MBP) of sciatic nerve. Nature of the data set: Immunohistochemistry, MBP expression pattern of sciatic nerve. To be noted: 0.25%, 11 days post injection. The method, then: Immunohistochemistry analysis were performed as described previously in Y. X. Tao, et al., Nerve injury-induced epigenetic silencing of opioid receptors controlled by DNMT3a in primary afferent neurons, Pain, 158 (2017) 1153-1165. The rats were anesthetized with isoflurane and perfused with 300 mL of 4% paraformaldehyde in 0.1 M phosphate-buffered saline (PBS) (pH 7.4). After perfusion, sciatic nerves were dissected, postfixed at 4° C. for 4 hours and cryoprotected in 30% sucrose overnight. The transverse and longitudinal sections were cut on a cryostat at a thickness of 20 μm. The sections were blocked for 1 hour at 25° C. in 0.01M PBS containing 5% goat serum and 0.3% Triton X-100. Sections were incubated overnight at 4° C. with mouse anti-myelin basic protein (MBP) (1:500; Biolegend, San Diego, CA). The sections were then incubated with a mixture of goat anti-mouse antibody conjugated to Cy2 (1:500; Jackson ImmunoResearch, West Grove, PA) for 2 hours at room temperature. Immunofluorescence-labeled images were generated using a Leica DMI4000 fluorescence microscope with a DFC365FX camera (Leica, Germany).
To examine whether injection of SRR injured the nerve fiber, we investigated the MBP expression pattern of sciatic nerve on 11 days post injection of PBS, PLGA, 0.25% FR, and 0.25% SRR (n=3 for each group).

The test system of data set [6] is sciatic nerve myelin sheath. Nature of the data set: Transmission electron microscopy, ultrastructure of sciatic nerve. To be noted: 0.25%; day 11 after injection; ipsilateral sciatic nerve; no significant difference among groups. The protocol: The rats were anesthetized with isoflurane and perfused with 300 mL of 2.5% gluteraldehyde in 0.1M sodium cacodylate buffer (pH 7.4). After perfusion, sciatic nerves were dissected, postfixed at 4° C. for 3 hours. After dehydrated by gradient ethanol elution, samples were cleared by propylene, then infiltrated with resin and embed in moulds. Transmission electronic microscopy images were acquired by a Hitachi H-7500 transmission electron microscope (Hitachi, Ltd. Japan). To observe the ultrastructure of sciatic nerve after injection, we harvested ipsilateral sciatic nerves on day 11 after injection of PBS. PLGA, 0.25% FR, and 0.25% SRR (n=3 for each group), then processed the tissue to be examined under TEM. […] Specific features of the degeneration of myelin sheath including thinner lamellae, loose lamellae, split myelin lamellae with discontinuities, or vacuole-like inclusions in the cytoplasm of Schwann cells were not observed in any of the nerve tissue.

The mark [7] stands for this setting: 2 h, normal reflexes in five trials.

In the case of `CCCN1CCCC[C@H]1C(=O)Nc1c(C)cccc1C` [FR, ropivacaine], the figures for the “increase of paw withdrawal threshold to mechanical stimulation vs incision+PBS” value in data set [1] (2 h after surgery), in data set [1] (4 h after surgery) and in data set [1] (12 h after surgery) were 76%, 59% and 71%, respectively. Also, the “increase of paw withdrawal latency to heat stimulation vs incision+PBS” value stood at 29% in data set [2] (0.2 mL peri-sciatic, 2 h after surgery); 33% in data set [2] (4 h after surgery); 18% in data set [2] (12 h after surgery). Besides, the “period of analgesic effect” value in data set [3] is at most 24 h post injection. Further, the Grasping reflex score is 4.38(0.63) with locomotor function (setting [7]), 5(0) in the data set with locomotor function (12 h) and 5(0) with locomotor function (1 d). Besides, the Placing reflex score in the data set on locomotor function (setting [7]), with locomotor function (12 h) and in the data set with locomotor function (1 d) was 5(0) throughout. Also, the Righting reflex score in the data set on locomotor function (setting [7]), with locomotor function (12 h) and in the data set with locomotor function (1 d) was 5(0) each time. In the data set with locomotor function (first 2 h after surgery, statistics showed no significant difference), the locomotor function entry was “slightly altered”. The “inflammation on microscopic examination (H&E)” value in data set [4] was “no significant inflammation”. For the same molecule, in data set [5], the “MBP expression pattern / myelin morphology” value was “no abnormality was observed”. Also, the “myelin sheath ultrastructure (TEM)” value in data set [6] is “intact and tightly laminated without any discontinuities”.
